One assay relates to Nrf-2. As to the kind of experiment: Nrf-2 Activation Assay (Nrf-2 Assay). Type of assay: cell-based, human. As to conditions: for activation of Nrf-2 pathway, in words: FIG. 7; for Nrf-2 Assay: Table 7, 1 μM compound, 24 hours, qPCR of Nrf-2 responsive genes. How it is done:
This assay was developed internally and was designed to determine if the novel test compounds disclosed herein active Nrf-2 and thereby promote resolution of inflammation by the mechanism believed to be responsible for the activity of omaveloxolone.
Briefly, GM03665 Friedreich Ataxia patient fibroblasts were grown in 12 Well Plates (TC Cell+F) (Sarstedt, Numbrecht Germany), at a density of […] in DMEM/F12 (Gibco, ThermoFisher Scientific, Waltham, MA, USA) cell media supplemented with 10% FBS and 1% Pen/Strep. Cells were left to rest overnight at 37° C. in a humidified atmosphere with 5% CO2 to allow attachment of the cells to the culture plate. Before continuing assay visual inspection of each well was done by light microscopy to detect any possible bacterial and fungal contamination. […] After incubation, cell media was removed and total RNA from the cells was isolated using E.Z.N.A.® Total RNA Kit I (Omega Bio-tek, Norcross, Georgia, USA) spin columns, and first-strand cDNA synthesis was carried out using a High Capacity cDNA Reverse Transcription Kit (Applied Biosystems™, Foster City, CA) following the manufacturer's instructions. qPCR analysis of gene expression was performed by mixing SYBR® Green Master Mix (Applied Biosystems™) with synthesized cDNA and forward and reverse primers. […] (60 cycles), and 95° C. for 60 seconds, followed by melt curve analysis at 72-95° C., 0.3° C./sec. The relative expression levels for each gene were calculated with the ΔΔCt method and normalized to the expression of REEP5 and SNRPD3 genes.
A general note: Real-time PCR tracks product formation cycle by cycle.

Assay [1] relates to HepG2 human hepatocarcinoma cells. Nature of the assay: Rotenone ATP Assay (Complex I Assay). The assay is classed as cell-based. The conditions noted are these: for activity in both the BSO Assay and the Rotenone ATP Assay, in words: BSO Assay and Rotenone ATP Assay taken together; for Complex I by-pass activity / restoring ATP production, in words: summary of rotenone assays. How it is done: This assay has been adapted from Haefeli R H, Erb M, Gemperli A C, Robay D, Courdier Fruh I, et al. (2011) NQO1-Dependent Redox Cycling of Idebenone: Effects on Cellular Redox Potential and Energy Levels. PLoS ONE 6(3): e17963. HepG2 human hepatocarcinoma cells were co-incubated with the electron transport chain Complex I toxin rotenone +/− compounds of interest and the corresponding effect on ATP synthesis was measured with a bioluminescent substrate.
In brief, HepG2 cells were plated at 25,000 cells per well in low glucose (1 gram/Liter) DMEM medium+10% fetal calf serum and incubated for 24 hours. The following day, the media was decanted and subsequently replaced with glucose free/serum free DMEM which has been supplemented with 50 micromolar rotenone and compound of interest. Serial dilutions of compound were prepared in 3× dilutions beginning at 25 micromolar. The cells were incubated for 60 minutes in a humidified tissue culture incubator. Following incubation, ATP levels were quantified via bioluminescent assay (Promega […] Glo Assay kit) and readings were captured on a standard microplate reader.
ATP bioluminescence is plotted versus the log of compound of interest and data were used to generate EC50 values. Curve fitting was performed using a sigmoidal dose response curve fit function (GraphPad Prism software).
Robustness of curve fit was assessed as a quality control measure, with an R squared value of at least 0.80 being required for a successful curve fit. Compounds of interest showing an increase in ATP bioluminescence relative to vehicle control were verified in an independent biological replicate of n=3 technical replicates per dose.
This assay is a direct measure of the ability of compounds of interest to restore ATP production under conditions of inhibition of Complex I of the mitochondrial electron transport chain. As the majority of ATP produced via the electron transport chain is thought to derive from Complex I activity, significant impairment in Complex I function has dire biological consequences. Of note, Complex I mutations are thought to drive pathophysiology in multiple mitochondrial diseases, including Leigh syndrome and Leber's Hereditary Optic Neuropathy (LHON), while diminished Complex I activity and the resultant attenuation of ATP production has been shown in neurodegenerative diseases, including Friedreich's Ataxia, Parkinson's Disease and Huntington's Disease.

Another assay concerns the target lipoxygenase-15 enzyme (Glycine max (Soybean) (Glycine hispida), UniProt P08170). Nature of the assay: Lipoxygenase-15 Assay (LO-15 Assay). As to conditions: reduced form of compounds.
For another assay, the system named is HepG2 cells. Nature of the assay: Rotenone Oxygraph Assay (high-resolution respirometry of intact HepG2 cells). As to conditions: Table 7; 1 μM rotenone, compound 10 μM. Type of assay: cell-based, human. On the procedure:
The Oxygraph-2 k (O2k, OROBOROS INSTRUMENTS, Austria) was used for measurements of respiration of intact cells. The respirometry was performed in Dulbecco's Modified Eagle Medium (DMEM) high glucose without supplements. All experiments were performed at 37° C.
HepG2 cells (ATCC collection code HB-8065™) were cultured in 10 cm^2 culture dishes in DMEM high glucose medium supplemented with 10% fetal bovine serum (FBS) and 100 units/mL penicillin and 100 μg/mL streptomycin until approximately 90% confluence was reached. Immediately prior to performing the respirometric assay, the cells were washed with media without FBS, trypsinized and resuspended in DMEM high glucose without FBS.
The final concentration of intact cells in the O2k-chamber was 0.5·10^6/mL. After stabilization of respiration, the Complex I inhibitor, rotenone, at 1 μM final concentration was added to inhibit electron flux via Complex I. Then, compound to be tested was added at 10 μM final concentration, and the change in respiration rate of intact cells was monitored.

The next assay concerns GM03665 cells. Nature of the assay: RSL3 Toxicity Assay (RSL3 Assay). Type of assay: cell-based, human. How it is done:
In brief, GM03665 cells (Coriell Institute) were seeded in 96-well plates (Sarstedt) in DMEM cell culture media containing 10% Fetal Bovine serum and 1% Penicillin-Streptomycin (Pen-Strep) antibiotic mix at the amount of 2×10^4/mL (100 μL or 2×10^3 cells per well). Cells were left to rest overnight at 37° C. in a humidified atmosphere with 5% CO2 to allow attachment of the cells to the culture plate. Test compounds were prepared as DMSO stocks (10 mM) and were serially diluted in cell culture media to obtain 2× working solutions. Cell media was discarded and replaced by 50 μL of test compound solutions or cell media with vehicle for control wells. Within 15 minutes, 2× working solution (4 μM) of 1S,3R-RSL3 (CAS #1219810-16-8, Sigma-Aldrich) (diluted from 5 mM DMSO stock in cell culture media) was added. Final reaction volume was 100 μL and final DMSO concentration in reaction was kept below 0.2% (v/v) and equal in all wells. Final RSL3 concentration was 2 μM and test compound final concentrations in reaction were up to 1000 nM. After 24 hours of incubation cell viability was assessed by MTT test. MTT (Sigma-Aldrich) solution 1 mg/mL in 1×PBS (pH=7,4) was prepared 1 hour before the assay and filtered through Filtropur S 0.2 filters (Sarstedt). Cell media with test compounds was discarded and 100 μL of MTT solution was added to cells. The plates were incubated for 2 hours at +37° C. Thereafter, the MTT solution was removed and 100 μL of isopropanol was added to dissolve sediment. Absorption at 570 and 650 nm was measured using Hidex Sense microplate reader.

Assay [2] concerns frataxin deficient fibroblasts (GM03665). Nature of the assay: cells. The assay is classed as cell-based.

The structures appear in SMILES notation. Entries after “also recorded” stand apart in the source; their conditions may differ.

`CC1=C(C)C(=O)C(CC[C@@](C)(O)CC/C=C(\C)CCC=C(F)F)=C(C)C1=O` [Compound L, (S,E)-2-(11,11-difluoro-3-hydroxy-3,7-dimethylundeca-6,10-dien-1-yl)-3,5,6-trimethylcyclohexa-2,5-diene-1,4-dione]: in the assay on Nrf-2, the “activation of Nrf-2 pathway, in words” value is given as “do not activate” and the “Nrf-2 Assay” value is given as “Inactive”. For the same compound, in assay [1], the “activity in both the BSO Assay and the Rotenone ATP Assay, in words” value is reported as “possess both activities”; the “Complex I by-pass activity / restoring ATP production, in words” value is given as “active”. The “activity in LO-15 assay, in words” value at lipoxygenase-15 enzyme was “active; also recorded: effective inhibitors”. The “Rotenone Oxygraph Assay % Increase” value in the assay with HepG2 cells was 58.6 +/− 15.5%. The “activity in RSL3 assay (protection from RSL3 induced ferroptosis), in words” value (from here on “activity in RSL3 assay”) in the assay on GM03665 cells is listed as “active; also recorded: able to prevent ferroptotic cell death”. The “activity in BSO assay (protection from BSO induced cell death), in words” value (“activity in BSO assay” for short) in assay [2] is reported as “able to prevent ferroptotic cell death; also recorded: active”.
`CC1=C(C)C(=O)C(CC[C@](C)(O)CC/C=C(\C)CC/C=C(\C)CCC=C2COC2)=C(C)C1=O` [Compound E, 2-((R,6E,10E)-3-hydroxy-3,7,11-trimethyl-14-(oxetan-3-ylidene)tetradeca-6,10-dien-1-yl)-3,5,6-trimethylcyclohexa-2,5-diene-1,4-dione]: in the assay with Nrf-2, the “activation of Nrf-2 pathway, in words” value is recorded as “do not activate” and the “Nrf-2 Assay” value was “Inactive”. Further, in assay [1], the “activity in both the BSO Assay and the Rotenone ATP Assay, in words” value is reported as “possess both activities”; the “Complex I by-pass activity / restoring ATP production, in words” value is on record as “active”. Further, on lipoxygenase-15 enzyme, the “activity in LO-15 assay, in words” value is given as “outside of the range of the assay”. Besides, in the assay on HepG2 cells, the “Rotenone Oxygraph Assay % Increase” value is 37.9 +/− 10.7%. Also, the “activity in RSL3 assay” value in the assay with GM03665 cells is recorded as “active; also recorded: able to prevent ferroptotic cell death”. The “activity in BSO assay” value in assay [2] is recorded as “able to prevent ferroptotic cell death; also recorded: active”.
Regarding `CC1=C(C)C(=O)C(CC[C@](C)(O)CCCCCCCCC(F)(F)F)=C(C)C1=O` [Compound N, (R)-2,3,5-trimethyl-6-(12,12,12-trifluoro-3-hydroxy-3-methyldodecyl)cyclo-hexa-2,5-diene-1,4-dione], in the assay with Nrf-2, the “activation of Nrf-2 pathway, in words” value is listed as “do not activate” and the “Nrf-2 Assay” value is “Inactive”. In addition, in assay [1], the “activity in both the BSO Assay and the Rotenone ATP Assay, in words” value was “possess both activities”; the “Complex I by-pass activity / restoring ATP production, in words” value is on record as “active”. Besides, the “activity in LO-15 assay, in words” value at lipoxygenase-15 enzyme is given as “active; also recorded: effective inhibitors”. Moreover, the “Rotenone Oxygraph Assay % Increase” value in the assay with HepG2 cells is given as 44.8 +/− 10.3%. Further, the “activity in RSL3 assay” value in the assay on GM03665 cells was “active; also recorded: able to prevent ferroptotic cell death”. Besides, the “activity in BSO assay” value in assay [2] is reported as “able to prevent ferroptotic cell death; also recorded: active”.

These data come from patent publication US20230303506A1, “COMPOSITIONS AND METHODS FOR THE PREVENTION AND/OR TREATMENT OF MITOCHONDRIAL DISEASE, INCLUDING FRIEDREICH'S ATAXIA” (Stealth BioTherapeutics Inc., priority 2019, published 2023).
